Measured values: patent US11246912B2, “Methods for treating and diagnosing metastatic liver cancer” (HADASIT MEDICAL RESEARCH SERVICES AND DEVELOPMENT LTD., priority 2017, dated 2022)
No end group written: not given here.

Experiments:
[1] = system: MC-38 colorectal liver metastases; experiment: MC-38 colorectal liver metastases model (intra-splenic cell injection) with adropin injection; assay type: in vivo, mouse
Procedure: Metastases model—In order to obtain metastases in the liver, a well-documented model was employed using the cancer cell lines derived from C57B1/6 mice—MC-38 or EL-4 cells. The cancer cells were injected intra-splenic into MDR2-Knockout (KO) and C57B1/6 mice at two and five months of age, and after 5 minutes the spleen was removed to prevent the development of a primary tumor in the spleen. Fourteen days later, the mice were euthanized, and their livers were removed in a similar manner to that described above.
Adropin injection—The adropin peptide (corresponding to amino acids at positions 34-76) was purchased from ChinaPeptides Co., Ltd. with a purity of >95%. The peptide was injected to mice according to two protocols. For the first protocol, termed ‘short adropin treatment’, adropin was injected at 450 nmole/kg in saline (80 μl injected), i.p., twice daily, for the five days surrounding the MC-38 CRC cell injection. For the second protocol, termed ‘prolonged adropin treatment’, 450 nmole/kg of adropin was injected i.p. (100 μl injected) once every three days from the morning of MC-38 cell injection throughout the experiment until the mice were sacrificed fourteen days later (a total of five injections).
Formalin-fixed paraffin-embedded tissue slides were stained with hematoxylin-eosin (H&E) staining and analyzed under a microscope using Cellsens Entry software (Olympus, Japan). The number and size of metastases larger than 4,000 μm^2 were recorded. The number of metastases was normalized relatively to the size of the liver sample analyzed.
A synthetic peptide of adropin (34-76 aa, purity: >95%) was then used to validate the findings regarding adropin's role in protecting the liver from metastases. The peptide, or saline as control, was injected (450 nmol/kg/i.p.) to mice during the week of cancer cell injection (2 days before, day of tumor cell injection and the following two days). A significant decrease of over 2.5-fold in the metastases size was observed, in the adropin-injected mice (FIG. 4B).
A further protocol was employed where adropin was injected every 3 days throughout the entire experiment period (14 days), starting from the morning of the cancer cell injection.
The mice were injected every two days with adropin (0.01 or 0.05 mg/i.p. injection) or saline starting from the morning of the MC-38 cell injection until being sacrificed two weeks later.

[2] = system: MC-38 (colorectal cancer cell line); experiment: XTT cell-proliferation test, MC-38 cells; assay type: cell-based, murine
Procedure: (§1) All cell lines were maintained in DMEM medium supplemented with 10% FCS, 1% Penicillin/Streptomycin and 1% L-Glutamine in 10 cm^2 plates in 5% humidified CO2 at 37° C. Twice a week cells were passaged. Detaching was done for MC-38, CT26 and normal cells by incubation with 1 ml trypsin for 2-3 min and then seeded (usually 1:10) in 10 ml DMEM supplemented medium which stopped the enzymatic process of trypsin. EL4 cells are grown in suspension, thus not requiring this stage. For the experiments, after the trypsin detachment, 1 ml of cells was transferred into 13 ml medium and then the cells were centrifuged (1,400 rpm, 10 min, room temperature (RT)) and resuspended in 1 ml of fresh medium (for in vitro experiments) or sterile PBS×l (for mouse injections in vivo). Cells were counted in a hemocytometer under a light microscope (magnification×10) immediately after the addition of Trypan blue solution (1:1 ratio). Non-stained cells were considered viable. For in-vivo mouse injections, the cells were diluted in sterile PBS xl to a final concentration of 5×10^4 for MC-38 cells or 5×10^5 for EL-4 cells per 100 μl. For XTT in vitro experiments, the cells were seeded in a 96-well plate (100 μl per well) in the morning and in the afternoon (once the cells adhered) the medium was changed according to the treatment (DMEM, Adropin 25 ng/ml, Adropin 50 ng/ml or Adropin 100 ng/ml). On the following day, the XTT reaction solution was added to the wells according to the cell proliferation kit (XTT based; Biological Industries, Israel) and the plate was read 2, 3 and 4 hours following, using a Magellan for Infinite F50 (Tecan, Switzerland) microplate reader at 450 nm.
To test adropin's direct effects on MC-38 cells, XTT cell-proliferation tests were performed with adropin added to the medium at different concentrations (25-100 ng/ml).

[3] = system: CT26 colorectal cancer cell line; experiment: XTT metabolic assay, CT26 cells; assay type: cell-based; details: CT26 seeded 5×10^3 cells/well
Procedure: FIGS. 9A-9D are vertical bar graphs showing the inhibitory effect of adropin on colorectal cancer cells.
as §1, with “For in-vivo mouse injections, the cells were diluted in sterile PBS xl to a final concentration of 5×10^4 for MC-38 cells or 5×10^5 for EL-4 cells per 100 μl. For XTT in vitro experiments, the cells were seeded in a 96-well plate (100 μl per well) in the morning and in the afternoon (once the cells adhered) the medium was changed according to the treatment (DMEM, Adropin 25 ng/ml, Adropin 50 ng/ml or Adropin 100 ng/ml).” left out

MC38 cells = experiment: Direct cell count, MC38 cells; assay type: cell-based, murine; details: all tested seeding concentrations, up to 5×10^4 cells/well; compared with XTT
Procedure: as §1, with “For in-vivo mouse injections, the cells were diluted in sterile PBS xl to a final concentration of 5×10^4 for MC-38 cells or 5×10^5 for EL-4 cells per 100 μl. For XTT in vitro experiments, the cells were seeded in a 96-well plate (100 μl per well) in the morning and in the afternoon (once the cells adhered) the medium was changed according to the treatment (DMEM, Adropin 25 ng/ml, Adropin 50 ng/ml or Adropin 100 ng/ml).” left out, “nm. […]” for “nm.”

CT26 cells = experiment: Direct cell count, CT26 cells; assay type: cell-based
[4] = system: normal fibroblasts (HF cells); experiment: XTT assay on normal fibroblasts; assay type: cell-based; details: 1×10^4 HF cells/well
Procedure: (§2) FIGS. 10A-10C are vertical bar graphs showing the specificity of adropin inhibition on proliferating cancer cells. No detectable effect of adropin treatment was observed (using XTT assay) on normal (A) fibroblasts (1×10^4 HF cells/well), (B) kidney cells (5×10^4 cells/well), and (C) hepatocytes (5×10^4 HepRG cells/well) in-vitro.
(§3) All cell lines were maintained in DMEM medium supplemented with 10% FCS, 1% Penicillin/Streptomycin and 1% L-Glutamine in 10 cm^2 plates in 5% humidified CO2 at 37° C. Twice a week cells were passaged. Detaching was done for MC-38, CT26 and normal cells by incubation with 1 ml trypsin for 2-3 min and then seeded (usually 1:10) in 10 ml DMEM supplemented medium which stopped the enzymatic process of trypsin. EL4 cells are grown in suspension, thus not requiring this stage. […] Cells were counted in a hemocytometer under a light microscope (magnification×10) immediately after the addition of Trypan blue solution (1:1 ratio). […] On the following day, the XTT reaction solution was added to the wells according to the cell proliferation kit (XTT based; Biological Industries, Israel) and the plate was read 2, 3 and 4 hours following, using a Magellan for Infinite F50 (Tecan, Switzerland) microplate reader at 450 nm. […]

normal kidney cells = experiment: XTT assay on normal kidney cells; assay type: cell-based; details: kidney cells 5×10^4 cells/well
Procedure: as §2, §3

[5] = system: hepatocytes (HepRG cells); experiment: XTT assay on normal hepatocytes; assay type: cell-based; details: 5×10^4 HepRG cells/well
Procedure: as §2, §3

[6] = Adropin stability under storage conditions by LC-MS; assay type: physicochemical
Source text: The inventors then examined the stability of adropin in vitro. For that, the inventors had set up a liquid chromatography mass spectrometry (LC-MS) assay and used it to examine the stability of adropin under different storage conditions (see Table 1). […] Contrary, approximately 50% degradation were observed when the dissolved peptide was stored at a room temperature for one month.

[7] = Adropin stability during incubation with mouse serum (LC-MS); assay type: in vitro ADME; details: 24 hours incubation with mouse serum; read-out: adropin level remaining
Procedure: FIG. 11 is a graph showing adropin dynamic stability during incubation with mouse serum as measured with liquid chromatography mass spectrometry (LC-MS).
The next step was to assess the stability of adropin during incubation with human or mouse serum.

hepatic adropin RNA = experiment: Hepatic adropin RNA levels after adropin injection (qRT-PCR); assay type: in vivo, mouse
Procedure: FIG. 14 is a vertical bar graph showing the dose effects of a single adropin administration (i.p.) at the indicated doses (0 (naïve), 0.01 mg, 0.05 mg and 0.001 mg) on hepatic adropin RNA levels (measured by qRT-PCR). Each group comprised 4 mice.
FIG. 15 is a vertical bar graph showing the efficacy of different adropin routes of administration on hepatic adropin RNA in naïve mice (measured by qRT-PCR). Adropin was injected at a dose 0.01 mg. Naïve, non-injected; IP, intraperitoneal injection; SC, subcutaneous injection; IV, intravenous injection.
(§4) C57BL/6 mice were given a single injection of adropin at different concentrations and sacrificed at varied times afterward. […] The lower concentration induced higher effect.
The inventors then pursued optimization of adropin administration. With this respect, different doses of adropin were administered to mice and hepatic adropin RNA levels were quantified (FIG. 14). […] Reduction in the dose of the administered adropin led to a reduction in the administered adropin effect.
Further, the inventors examined whether the administration route of the adropin affects the hepatic adropin mRNA levels (FIG. 15).

hepatic adropin protein = experiment: Hepatic adropin protein levels after single adropin injection; assay type: in vivo, mouse; details: C57BL/6 mice, single i.p. injection, different doses; lasting for two days
Procedure: FIGS. 12A-12B are vertical bar graphs showing the effect of single adropin polypeptide injection on endogenous hepatic adropin RNA (A) and (B) protein levels at the indicated doses and timing following i.p. injection (n represents number of mice per group).
Adropin levels were determined using the ELISA Kit (Cloud-Clone Corp., Texas, USA) for liver or serum mice samples according to the manufacturer's protocol. The results were analyzed using Magellan for Infinite F50 (Tecan, Switzerland).
as §4

[8] = adropin 450 nmol/kg i.p., short treatment, vs saline
[9] = adropin 0.01 or 0.05 mg/i.p. injection every two days for two weeks, C57BL/6 mice
[10] = prolonged adropin treatment, 450 nmol/kg i.p. every 3 days for 14 days

Sequence: CHSRSADVDSLSESSPNSSPGPCPEKAPPPQKPSHEGSYLLQP (cysteines drawn unpaired) [adropin]
- BrdU levels in the hepatic parenchyma [1, 8]: no differences
- number of BrdU stained cells in the tumors [1, 8]: decrease in the number of BrdU stained cells
- number of hepatic metastases [1, 9]: significantly improved effects
- size of hepatic metastases [1, 9]: significantly improved effects
- number of liver metastases [1, 10]: reduced upon adropin injections (marginally significant)
- size of liver metastases [1, 10]: reduced upon adropin injections (marginally significant)
- decrease in the metastases size ([1]; short adropin treatment, 450 nmol/kg i.p., 2 days before, day of and two days after MC-38 cell injection, vs saline): over 2.5 fold
- inhibition of proliferation (XTT metabolic assay, FIG. 9A) ([2]; MC38 seeded 5×10^3 cells/well): significant inhibition
- reduction in cell number (XTT) ([2]; adropin 100 ng/ml, seeded 1×10^3 cells/well): significant reduction in cell number
- reduction in cell number (XTT) ([2]; adropin 100 ng/ml, seeded 5×10^3 cells/well): significant reduction in cell number
- proliferation levels (XTT) ([2]; adropin 25-100 ng/ml in medium): decrease in the proliferation levels of the colorectal cancer cells in a dose dependent manner
- reduction in cell number (XTT) ([2]; adropin 25 or 100 ng/ml, seeded 5×10^4 cells/well): No significant reduction
- inhibition of proliferation (XTT metabolic assay, FIG. 9C) [3]: significant inhibition
- inhibitory effect on the number of cells (direct cell count) (MC38 cells): even higher inhibitory effect
- inhibition by direct cell counts (CT26 cells): same trends of inhibition
- effect of adropin treatment on normal cells (XTT) [4]: No detectable effects
- effect of adropin treatment on normal cells (XTT) (normal kidney cells): No detectable effects
- effect of adropin treatment on normal cells (XTT) [5]: No detectable effects
- Concentration obtained by LC-MS ([6]; 4° C. for 1 month): 84 ng/mL
- Concentration obtained by LC-MS ([6]; Freeze/Thaw cycle × 3 (−20° C. to RT once a week)): 92 ng/mL
- Concentration obtained by LC-MS ([6]; Room temperature (RT) for 1 month): 55 ng/mL
- degradation of dissolved peptide ([6]; room temperature for one month): approximately 50%
- Concentration obtained by LC-MS ([6]; −20° C. for 1 month): 95 ng/mL
- stability dissolved in saline ([6]; −20° C. or −80° C., up to one month): highly stable
- Concentration obtained by LC-MS ([6]; −80° C. and then 4° C. for 1 week): 99 ng/mL
- Concentration obtained by LC-MS ([6]; −80° C. and then RT for 1 week): 94 ng/mL
- Concentration obtained by LC-MS ([6]; −80° C. and then −20° C. for 1 week): 100 ng/mL
- Concentration obtained by LC-MS ([6]; −80° C. for 1 month): 95 ng/mL
- remaining at 24 h [7]: 55%
- hepatic adropin RNA levels (hepatic adropin RNA; C57BL/6 mice, single i.p. injection, different doses, lasting for two days): large increase
- hepatic adropin mRNA levels (hepatic adropin RNA; intraperitoneal injection, 0.01 mg, naïve mice): greatest increase
- hepatic adropin mRNA levels (hepatic adropin RNA; intravenous injection, 0.01 mg, naïve mice): substantial increase
- hepatic adropin mRNA levels (hepatic adropin RNA; single i.p. dose of 0.001 mg): did not induce such an effect
- hepatic adropin mRNA levels (hepatic adropin RNA; single i.p. dose of 0.005 mg): some increase
- hepatic adropin mRNA levels (hepatic adropin RNA; single i.p. dose of 0.01 mg): substantially increase
- hepatic adropin mRNA levels (hepatic adropin RNA; subcutaneous injection, 0.01 mg, naïve mice): did not seem to increase
- hepatic adropin protein levels (hepatic adropin protein): large increase
